According to US9376442B2, “Methylpyrrolopyrimidinecarboxamides” (Takeda GmbH, priority 2009, dated 2016):

Target: T1, PDE5A1 (Homo sapiens, UniProt O76074)
T1 construct: from tissue; host or cells: human platelets from fresh donor blood (10,000 x g supernatant of sonicated lysate)
Test: Inhibition of type 5 phosphodiesterase (PDE5) activity, modified SPA test with human platelet lysate
Assay type: biochemical
Conditions: 0.5 μM cGMP, read-out: PDE5A1 inhibitory values [measured as −log IC50 (mol/l)] (converted)
Method in brief: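 Scintillation proximity assay with [3H]cGMP tracer at 0.5 μM total cGMP, stopped after 15 min with beads containing IBMX. PDE3 and PDE2 activities suppressed with motapizone (1 μM) and a PDE2 inhibitor (10 nM). Human platelet supernatant served as the enzyme, with compound preincubated 5 min at 37° C; IC50 values from concentration-effect curves.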

Compound | IC50
COCC(=O)N1CCC(NC(=O)c2c(C)[nH]c3c(-c4cc(F)c(OC)cc4OCC4CC4)ncnc23)CC1 [Example E133, 4-[2-(Cyclopropylmethoxy)-5-fluoro-4-methoxyphenyl]-N-[1-(methoxyacetyl)piperidin-4-yl]-6-methyl-5H-pyrrolo[3,2-d]pyrimidine-7-carboxamide] | < 1 nM
CCC(=O)N1C[C@@H](O)[C@H](NC(=O)c2c(C)[nH]c3c(-c4ccc(F)cc4OCC4CC4)ncnc23)C1 (relative stereo) [Example E32, 4-[2-(Cyclopropylmethoxy)-4-fluorophenyl]-N-[(3R*,4R*)-4-hydroxy-1-propanoylpyrrolidin-3-yl]-6-methyl-5H-pyrrolo[3,2-d]pyrimidine-7-carboxamide] | 1 to 10 nM
CCC(=O)N1CCC(NC(=O)c2c(C)[nH]c3c(-c4cc(C)c(F)cc4OCC4CC4)ncnc23)CC1 [Example E120, 4-[2-(Cyclopropylmethoxy)-4-fluoro-5-methylphenyl]-6-methyl-N-(1-propanoylpiperidin-4-yl)-5H-pyrrolo[3,2-d]pyrimidine-7-carboxamide] | < 1 nM
COc1ccc(OCC2CC2)c(-c2ncnc3c(C(=O)N[C@@H]4CCN(C(C)=O)C4)c(C)[nH]c23)c1 [Example E75, N-[(3R)-1-acetylpyrrolidin-3-yl]-4-[2-(cyclopropylmethoxy)-5-methoxyphenyl]-6-methyl-5H-pyrrolo[3,2-d]pyrimidine-7-carboxamide] | < 1 nM
COc1cc(-c2ncnc3c(C(=O)N[C@H]4CN(C(C)=O)CC[C@@H]4O)c(C)[nH]c23)c(OCC2CC2)cc1F (relative stereo) [Example E116, N-[(3S*,4S*)-1-Acetyl-4-hydroxypiperidin-3-yl]-4-[2-(cyclopropylmethoxy)-4-fluoro-5-methoxyphenyl]-6-methyl-5H-pyrrolo[3,2-d]pyrimidine-7-carboxamide] | < 1 nM
CCC(=O)N1CC[C@@H](NC(=O)c2c(C)[nH]c3c(-c4ccc(F)cc4OCC4CC4)ncnc23)C1 [Example E29, 4-[2-(Cyclopropylmethoxy)-4-fluorophenyl]-6-methyl-N-[(3R)-1-propanoylpyrrolidin-3-yl]-5H-pyrrolo[3,2-d]pyrimidine-7-carboxamide] | < 1 nM
CCC(=O)N1CC[C@@H](NC(=O)c2c(C)[nH]c3c(-c4cc(OC)c(F)cc4OCC4CC4)ncnc23)[C@H](O)C1 (relative stereo) [Example E114, 4-[2-(Cyclopropylmethoxy)-4-fluoro-5-methoxyphenyl]-N-[(3R*,4R*)-3-hydroxy-1-propionylpiperidin-4-yl]-6-methyl-5H-pyrrolo[3,2-d]pyrimidine-7-carboxamide] | < 1 nM
CCC(=O)N1CCC(NC(=O)c2c(C)[nH]c3c(-c4ccc(OC)cc4OCC4CC4)ncnc23)CC1 [Example E56, 4-[2-(Cyclopropylmethoxy)-4-methoxyphenyl]-6-methyl-N-(1-propionylpiperidin-4-yl)-5H-pyrrolo[3,2-d]pyrimidine-7-carboxamide] | < 1 nM
COc1ccc(-c2ncnc3c(C(=O)N[C@H]4CC[C@@H](NC(C)=O)CC4)c(C)[nH]c23)c(OCC2CC2)c1 [Example E59, N-(cis-4-acetamidocyclohexyl)-4-[2-(cyclopropylmethoxy)-4-methoxyphenyl]-6-methyl-5H-pyrrolo[3,2-d]pyrimidine-7-carboxamide] | < 1 nM
CC(=O)N[C@H]1CC[C@H](NC(=O)c2c(C)[nH]c3c(-c4c(OCC5CC5)ccc5c4OCO5)ncnc23)CC1 [Example E5, N-(trans-4-acetamidocyclohexyl)-4-[5-(cyclopropylmethoxy)-1,3-benzodioxol-4-yl]-6-methyl-5H-pyrrolo[3,2-d]pyrimidine-7-carboxamide] | < 1 nM
COCC(=O)N1CCC(NC(=O)c2c(C)[nH]c3c(-c4cc(C(C)C)ccc4OCC4CC4)ncnc23)CC1 [Example E158, 4-[2-(Cyclopropylmethoxy)-5-(propan-2-yl)phenyl]-N-[1-(methoxyacetyl)piperidin-4-yl]-6-methyl-5H-pyrrolo[3,2-d]pyrimidine-7-carboxamide] | 1 to 10 nM
CCOC(=O)N[C@H]1CC[C@H](NC(=O)c2c(C)[nH]c3c(-c4cc(OC)c(F)cc4OCC4CC4)ncnc23)CC1 [Example E109, Ethyl {trans-4-[({4-[2-(cyclopropylmethoxy)-4-fluoro-5-methoxyphenyl]-6-methyl-5H-pyrrolo[3,2-d]pyrimidin-7-yl}carbonyl)amino]cyclohexyl}carbamate] | < 1 nM
CCC(=O)N[C@H]1CC[C@@H](NC(=O)c2c(C)[nH]c3c(-c4cc(C)c(F)cc4OCC4CC4)ncnc23)CC1 [Example E126, 4-[2-(Cyclopropylmethoxy)-4-fluoro-5-methylphenyl]-6-methyl-N-[cis-4-(propanoylamino)cyclohexyl]-5H-pyrrolo[3,2-d]pyrimidine-7-carboxamide] | < 1 nM
COc1cc(-c2ncnc3c(C(=O)N[C@H]4CC[C@H](NC(C)=O)CC4)c(C)[nH]c23)c(OCC2CC2)cc1F [Example E106, N-(trans-4-Acetamidocyclohexyl)-4-[2-(cyclopropylmethoxy)-4-fluoro-5-methoxyphenyl]-6-methyl-5H-pyrrolo[3,2-d]pyrimidine-7-carboxamide] | < 1 nM
CCC(=O)N[C@H]1CC[C@H](NC(=O)c2c(C)[nH]c3c(-c4cc(C)c(F)cc4OCC4CC4)ncnc23)CC1 [Example E123, 4-[2-(Cyclopropylmethoxy)-4-fluoro-5-methylphenyl]-6-methyl-N-[trans-4-(propanoylamino)cyclohexyl]-5H-pyrrolo[3,2-d]pyrimidine-7-carboxamide] | < 1 nM
CCC(=O)N1CC[C@@H](NC(=O)c2c(C)[nH]c3c(-c4cc(OC)ccc4OCC4CC4)ncnc23)[C@H](O)C1 (relative stereo) [Example E79, 4-[2-(Cyclopropylmethoxy)-5-methoxyphenyl]-N-[(3R*,4R*)-3-hydroxy-1-propanoylpiperidin-4-yl]-6-methyl-5H-pyrrolo[3,2-d]pyrimidine-7-carboxamide] | < 1 nM

More lines, now with the values ahead:

IC50 | Compound
< 1 nM | CC(=O)c1ccc(OCC2CC2)c(-c2ncnc3c(C(=O)N[C@H]4CC[C@H](NC(=O)[C@H](C)O)CC4)c(C)[nH]c23)c1 [Example F105, 4-[5-Acetyl-2-(cyclopropylmethoxy)phenyl]-N-(trans-4-{[(2S)-2-hydroxypropanoyl]amino}cyclohexyl)-6-methyl-5H-pyrrolo[3,2-d]pyrimidine-7-carboxamide]
< 1 nM | CCc1ccc(OCC2CC2)c(-c2ncnc3c(C(=O)NC4CCN(C(=O)[C@H](C)O)CC4)c(C)[nH]c23)c1 [Example F92, 4-[2-(Cyclopropylmethoxy)-5-ethylphenyl]-N-{1-[(2S)-2-hydroxypropanoyl]piperidin-4-yl}-6-methyl-5H-pyrrolo[3,2-d]pyrimidine-7-carboxamide]
< 1 nM | COc1ccc(-c2ncnc3c(C(=O)N[C@@H]4CCN(C(=O)CO)C4)c(C)[nH]c23)c(OCC2CC2)c1 [Example F37, 4-[2-(Cyclopropylmethoxy)-4-methoxyphenyl]-N-[(3R)-1-glycoloylpyrrolidin-3-yl]-6-methyl-5H-pyrrolo[3,2-d]pyrimidine-7-carboxamide]
< 1 nM | COc1cc(-c2ncnc3c(C(=O)NC4CCN(C(=O)CO)CC4)c(C)[nH]c23)c(OCC2CC2)cc1F [Example F65, 4-[2-(Cyclopropylmethoxy)-4-fluoro-5-methoxyphenyl]-N-(1-glycoloylpiperidin-4-yl)-6-methyl-5H-pyrrolo[3,2-d]pyrimidine-7-carboxamide]
1 to 10 nM | Cc1[nH]c2c(-c3cc(F)ccc3OCC3CC3)ncnc2c1C(=O)N[C@@H]1CCN(C(=O)CO)C[C@H]1O (relative stereo) [Example F30, 4-[2-(Cyclopropylmethoxy)-5-fluorophenyl]-N-[(3R*,4R*)-3-hydroxy-1-(hydroxyacetyl)piperidin-4-yl]-6-methyl-5H-pyrrolo[3,2-d]pyrimidine-7-carboxamide]
< 1 nM | CC(=O)c1ccc(OCC2CC2)c(-c2ncnc3c(C(=O)NC4CCN(C(=O)[C@H](C)O)CC4)c(C)[nH]c23)c1 [Example F103, 4-[5-Acetyl-2-(cyclopropylmethoxy)phenyl]-N-{1-[(2S)-2-hydroxypropanoyl]piperidin-4-yl}-6-methyl-5H-pyrrolo[3,2-d]pyrimidine-7-carboxamide]
< 1 nM | COc1cc(OCC2CC2)c(-c2ncnc3c(C(=O)N[C@H]4CC[C@H](NC(=O)[C@H](C)O)CC4)c(C)[nH]c23)cc1F [Example F86, 4-[2-(Cyclopropylmethoxy)-5-fluoro-4-methoxyphenyl]-N-(trans-4-{[(25)-2-hydroxypropanoyl]amino}cyclohexyl)-6-methyl-5H-pyrrolo[3,2-d]pyrimidine-7-carboxamide]
< 1 nM | COc1cc(-c2ncnc3c(C(=O)NC4CCN(C(=O)[C@H](C)O)CC4)c(C)[nH]c23)c(OCC2CC2)cc1F [Example F66, 4-[2-(Cyclopropylmethoxy)-4-fluoro-5-methoxyphenyl]-N-{1-[(2S)-2-hydroxypropanoyl]piperidin-4-yl}-6-methyl-5H-pyrrolo[3,2-d]pyrimidine-7-carboxamide]
< 1 nM | COc1cc(OCC2CC2)c(-c2ncnc3c(C(=O)NC4CCN(C(=O)[C@H](C)O)CC4)c(C)[nH]c23)cc1F [Example F84, 4-[2-(Cyclopropylmethoxy)-5-fluoro-4-methoxyphenyl]-N-{1-[(2S)-2-hydroxypropanoyl]piperidin-4-yl}-6-methyl-5H-pyrrolo[3,2-d]pyrimidine-7-carboxamide]
< 1 nM | COc1ccc(-c2ncnc3c(C(=O)NC4CCN(C(=O)CO)CC4)c(C)[nH]c23)c(OCC2CC2)c1 [Example F34, 4-[2-(Cyclopropylmethoxy)-4-methoxyphenyl]-N-(1-glycoloylpiperidin-4-yl)-6-methyl-5H-pyrrolo[3,2-d]pyrimidine-7-carboxamide]
